Source: ChEMBL document CHEMBL1147246, “Flavonoids from Dalbergia louvelii and their antiplasmodial activity” (J Nat Prod, 2003)
Activity calls are given as the source filed them. The rule behind the calls is not given here.

System: Plasmodium falciparum
Experiment: Antiplasmodial activity after 18 hrs against chloroquine-resistant Plasmodium falciparum FcB1 in human blood by [3H]hypoxanthine uptake
Format: functional, organism-based

Row | Structure (SMILES) | Activity | IC50 [µM]
1 | COc1cc(O)c([C@@H]2COc3cc(O)ccc3C2=O)cc1OC | inactive | –
2 | COC1=CC(=O)C(O)=CC12CCCc1cc(O)ccc12 (stereo not drawn) | inactive | –
3 | O=C(/C=C/c1ccc(O)cc1)c1ccc(O)cc1O [ISOLIQUIRITIGENIN] | – | 7.8
4 | COc1cc(-c2coc3cc(O)ccc3c2=O)ccc1O | – | 6.8
5 | COc1cc(CCCc2cccc(O)c2)c(OC)cc1O | inactive | –
6 | COc1cc(-c2cc3ccc(O)cc3oc2=O)c(O)cc1O | inactive | –
7 | COc1cc2c(cc1O)[C@@H](C)[C@H](c1ccccc1)O2 [OBTUSAFURAN] | – | 8.7
8 | C=C[C@@H](C1=CC(=O)C(OC)=CC1=O)c1ccccc1 | – | 5.8
